These results are taken from PMC6399351, “Cationic Intrinsically Disordered Antimicrobial Peptides (CIDAMPs) Represent a New Paradigm of Innate Defense with a Potential for Novel Anti-Infectives” (Scientific Reports, 2019).

The subject of assay [1] is Peptostreptococcus magnus ATCC 15794. Put plainly: CFU assay of antimicrobial activity. It is filed as cell-based, Peptostreptococcus magnus (now Finegoldia magna). As to conditions: 10 mM NaP, pH 7.3, 1% TSB. As for the experimental part:
(§1) All purified peptides and recombinant proteins were applied using a colony forming unit (CFU) assay in different media. Bacteria were grown to early log-phase in BHI, washed either with 10 mM Na-P, pH 7.4/1% TSB or pH 5.5/1% TSB, or pH 5.5 without TSB or BHI, and adjusted to a concentration of 10^4–10^5 colony forming units (CFU)/ml. For cell number control, 100 µl aliquots were diluted 1:10, 1:100 and 1:1000 and plated in duplicates on BHI agar plates. To 100 µl aliquots of the bacteria, suspended in the respective medium (10 mM Na-P buffer pH 7,0–7,4/ 1% (w/v) TSB; 10 mM Na-P buffer pH 5,5/ 1% (w/v) TSB; 10 mM Na-P buffer pH 7,0–7,4/ 1% (w/v) TSB pH 7,0–7,4/ 0,25% (w/v) glucose; 10 mM Na-P buffer pH 5,5/ 0,25% (w/v) glucose, respectively), 10 µl of a solution of the peptide or protein (two-fold dilutions, from 300 µg/ml or 150 µg/ml down to 19 ng/ml), dissolved in 0.01% (v/v) acetic acid, were added.
Then bacteria were incubated for 2 h at ambient temperature, if not otherwise stated. 10 µl of 0.01% (v/v) acetic acid, added to 100 µl aliquots of the bacteria in the respective medium, served as negative control. […] After 16 h incubation at 37 °C, CFU were counted using a colony counter (Bio Kobe, Japan) and expressed as mean of the duplicate estimation to achieve a complete dose-response curve. […]

Assay [2] concerns Clostridium perfringens ATCC 13124. The note with it: CFU assay, 10 mM NaP.
Assay [3] deals with Klebsiella pneumonia ATCC 700603. The note with it: MDR strain; CLSI, Mueller–Hinton broth, 5 × 10^5 CFU/mL, 18 h 37 °C, by CO-ADD.
The test system of assay [4] is Corynebacterium simulans DSM 44415. Put plainly: CFU assay of antimicrobial activity. In kind it is cell-based. As to conditions: 10 mM NaP, pH 7.3, 1% TSB. The method, then: All purified peptides and recombinant proteins were applied using a colony forming unit (CFU) assay in different media. Bacteria were grown to early log-phase in BHI, washed either with 10 mM Na-P, pH 7.4/1% TSB or pH 5.5/1% TSB, or pH 5.5 without TSB or BHI, and adjusted to a concentration of 10^4–10^5 colony forming units (CFU)/ml. For cell number control, 100 µl aliquots were diluted 1:10, 1:100 and 1:1000 and plated in duplicates on BHI agar plates. […]
(§2) Then bacteria were incubated for 2 h at ambient temperature, if not otherwise stated. 10 µl of 0.01% (v/v) acetic acid, added to 100 µl aliquots of the bacteria in the respective medium, served as negative control. From each test, 1:10 and 1:100 dilutions were generated and plated as duplicates of 100 µl aliquots on BHI agar plates. After 16 h incubation at 37 °C, CFU were counted using a colony counter (Bio Kobe, Japan) and expressed as mean of the duplicate estimation to achieve a complete dose-response curve. All experiments were performed at serial dilutions in a concentration range of 100 µg/mL −25 ng/mL for recombinant HRNR fragments and 300 or 150 µg/mL–19 ng/mL for synthetic peptides.

Assay [5] has as its system Lactobacillus crispatus DSM 20584. Put plainly: CFU assay of antimicrobial activity. In kind it is cell-based. As to conditions: 10 mM NaP, pH 7.3, 1% TSB. As for the experimental part:
as §1, §2

The subject of assay [6] is Staphylococcus epidermidis ATCC 14990. Put plainly: CFU assay of antimicrobial activity. It is filed as cell-based. The note with it: 10 mM NaP. The method, then: as §1, §2
Assay [7] deals with Salmonella typhimurium ATCC 13311. Put plainly: CFU assay of antimicrobial activity. It is filed as cell-based. As to conditions: 10 mM NaP, pH 7.3, 1% TSB. The method, then: as §1, §2
The test system of assay [8] is Propionibacterium acnes ATCC 6919. The experiment in a line: CFU assay of antimicrobial activity. The note with it: 10 mM NaP. It is filed as cell-based. The method, then: as §1, §2
Assay [9] deals with Staphylococcus hominis ATCC 27844. The note with it: CFU assay, 10 mM NaP, pH 7.3, 1% TSB.
Another assay has as its system S. aureus ATCC 6538. As to conditions: CFU assay.
The next assay deals with P. aeruginosa ATCC 10145. As to conditions: CFU assay, 10 mM NaP.
Assay [10] concerns Acinetobacter baumannii ATCC 19606. Put plainly: CO-ADD MIC, broth microdilution (CLSI). In kind it is cell-based. As to conditions: Mueller–Hinton broth, 5 × 10^5 CFU/mL, 18 h 37 °C, by CO-ADD. An excerpt: (§3) They were defined as the lowest peptide
(§4) Further details of the screening
For orientation: Dilution methods test growth across graded concentrations, often in twofold steps.

Assay [11] has as its system Pseudomonas aeruginosa ATCC 27853. The experiment in a line: CO-ADD MIC, broth microdilution (CLSI). It is filed as cell-based. The note with it: Mueller–Hinton broth, 5 × 10^5 CFU/mL, 18 h 37 °C, by CO-ADD.
Text: as §3, §4

The test system of assay [12] is Streptococcus pyogenes ATCC 12344. The experiment in a line: CFU assay of antimicrobial activity. It is filed as cell-based. The note with it: 10 mM NaP, pH 7.3, 1% TSB. As for the experimental part: as §1, with “[…];” for “10 mM Na-P buffer pH 5,5/ 1% (w/v) TSB;”
as §2

Assay [13] relates to Streptococcus pneumoniae ATCC 33400. Put plainly: CFU assay of antimicrobial activity. In kind it is cell-based. The note with it: 10 mM NaP, pH 7.3, 1% TSB. The method, then:
as §1, with “[…];” for “10 mM Na-P buffer pH 5,5/ 1% (w/v) TSB;”
as §2

Structures are written as SMILES. Values after ≈ are worked out from the molar mass of the structure shown. Values joined by “and” are separate entries in the source; they are usually repeats but may differ in a detail not shown here. Equal values may be shown once. Read-outs that look alike come from different tables or passages of the source. Peptide text beside a SMILES is read from it. * marks the point of attachment. Palmitoyl = CCCCCCCCCCCCCCCC(=O)* Some results are limits rather than exact numbers.

For the compound `CCCCCCCCCCCCCCCC(=O)NCC(=O)N[C@@H](CCCNC(=N)N)C(=O)N[C@@H](CCCNC(=N)N)C(=O)NCC(=O)NCC(=O)N[C@@H](CCCNC(=N)N)C(=O)NCC(=O)NCC(=O)N[C@@H](CCCNC(=N)N)C(=O)NCC(=O)N[C@@H](CCCNC(=N)N)C(=O)NCC(=O)N[C@@H](CCCNC(=N)N)C(=O)O` [Pal-GR13] (Palmitoyl-GRRGGRGGRGRGR-OH), the LD90 was 4.7 µg/mL in assay [1]; 37.5 µg/mL in assay [2] (pH 5.5, 0.25% glucose); 4.7 µg/mL in assay [2] (pH 7.3, 0.25% glucose); 18.75 µg/mL in [2] (pH 7.3, 1% TSB); 0.59 µg/mL in assay [4]; 9.38 µg/mL in assay [5]. The LD90 in [6] (pH 5.5, 0.25% glucose) is 9.38 µg/mL; in assay [6] (pH 7.3, 1% TSB), 0.59 µg/mL; in [7], 2.35 µg/mL; in assay [8] (pH 5.5, 0.25% glucose) it was 0.3 µg/mL; in assay [8] (pH 7.3, 0.25% glucose), 0.59 µg/mL; in [8] (pH 7.3, 1% TSB) it was 1.18 µg/mL. The LD90 is 1.18 µg/mL in [9]; 0.075 µg/mL and 0.15 µg/mL with S. aureus ATCC 6538 (10 mM NaP, pH 5.5, 0.25% glucose); 0.3 µg/mL with S. aureus ATCC 6538 (10 mM NaP, pH 5.5, 1% TSB); 0.3 µg/mL in the assay on S. aureus ATCC 6538 (10 mM NaP, pH 7.3, 1% TSB); 47 nM in the assay on S. aureus ATCC 6538 (value in molar units); 0.075 µg/mL in the assay with P. aeruginosa ATCC 10145 (pH 5.5, 0.25% glucose). Besides, the LD90 in the assay on P. aeruginosa ATCC 10145 (pH 7.3, 1% TSB) turned out to be 0.3 µg/mL; in assay [12] it was 0.15 µg/mL; in [13], 2.35 µg/mL. In addition, the “Minimal inhibitory concentration (MIC)” value in assay [3] is at least 16 µg/mL; in assay [10] it was 2 µg/mL (≈ 1.26 µM); in assay [11], 8 µg/mL (≈ 5.02 µM).
